Values after ≈ are worked out from the molar mass of the structure shown. Values joined by “and” are separate entries in the source; they are usually repeats but may differ in a detail not shown here. Identical values can stand only once. Like-named read-outs stand apart in the source and are kept apart here. Where only a bound is given, the exact number is not on record here.

Type in all cases: cell-based
For series [1], the system named is P. aeruginosa MB5919 (PAO1). The series is described as follows: Broth microdilution MIC, P. aeruginosa MB5919. To be noted: Pseudomonas aeruginosa. An excerpt:
(§1) E. coli HS151 (ΔtolC) has been described previously. […] E. coli BW25113 and the Keio gene deletion collection based on BW25113 [25] were obtained from Thermo Fisher Scientific (Waltham, MA) and described in [26]. The plasmid-borne FQ resistance determinant, qnrVC3 [27], was kindly provided by D. Hooper (Massachusetts General Hospital). […] MB2884 (E. coli) and CL15245 (K. pneumoniae) are clinical isolates from the Merck & Co., Inc., Kenilworth, NJ, USA, strain collection. S. aureus COL is a methicillin-resistant clinical isolate.
(§2) Compound doubling dilutions were prepared in 100% DMSO (Sigma Aldrich) and 2 μL of each dilution was transferred to a 96-well plate with lid (Thermo Scientific). Inoculum for all MIC testing was prepared using the BBL Prompt Inoculation System (Becton Dickinson, Franklin Lakes, NJ USA) as described by the manufacturer to produce a suspension of cells at approximately 1.5 x 10^8 colony forming units (CFU)/mL [34–36] and a further dilution (1:1000) was made into cation adjusted Mueller-Hinton broth (CAMH broth, Becton-Dickinson). One hundred μL of this inoculum were then transferred to each well of the 96-well plate containing diluted compound (above). Plates were covered and incubated overnight (18 hrs.) at 37°C.
Background: Broth dilution looks for growth in wells or tubes with falling amounts of substance.

In another series the test system is E. coli HS151 (ΔtolC). The series is described as follows: microbe, parasite or virus in culture. To be noted: Escherichia coli.
Description: as §1, §2

Series [2] relates to P. aeruginosa(effluxΔ) MB5890. The experiment in a line: microbe, parasite or virus in culture. To be noted: Pseudomonas aeruginosa.
Description: as §1, §2

Series [3] relates to A. baumannii ΔlpxC MB9796. The series is described as follows: Broth microdilution MIC, A. baumannii MB9796. To be noted: Acinetobacter baumannii.
Description: (§3) E. coli HS151 (ΔtolC) has been described previously. Gyrase inhibitor-resistant isolates (GYR101-108) were derived by selection for spontaneous resistance to MRL-770 or MRL-423 (Fig 1) in E. coli HS151 as described below. E. coli BW25113 and the Keio gene deletion collection based on BW25113 [25] were obtained from Thermo Fisher Scientific (Waltham, MA) and described in [26]. The plasmid-borne FQ resistance determinant, qnrVC3 [27], was kindly provided by D. Hooper (Massachusetts General Hospital). MB9796 (A. baumannii) is a derivative of MB9797 (ATCC19606) lacking lipopolysaccharide. The efflux-defective P. aeruginosa strain MB5890 (CB398) is a derivative of MB5919 (PAO1). MB2884 (E. coli) and CL15245 (K. pneumoniae) are clinical isolates from the Merck & Co., Inc., Kenilworth, NJ, USA, strain collection. S. aureus COL is a methicillin-resistant clinical isolate.
as §2

The next series has as its system E. coli CIP101 GyrA D87N. The series is described as follows: microbe, parasite or virus in culture. To be noted: Escherichia coli. As for the experimental part:
as §2

The subject of series [4] is A. baumanii MB9797 (ATCC19606). The series is described as follows: Broth microdilution MIC, A. baumannii MB9797. To be noted: Acinetobacter baumannii.
Description: as §3, §2

The test system of series [5] is E. coli MB2884 (clinical isolate). The experiment in a line: Broth microdilution MIC, E. coli MB2884. To be noted: Escherichia coli.
Description: as §1, §2

The subject of series [6] is E. coli GYR108 GyrB L470I/V467L. The experiment in a line: microbe, parasite or virus in culture. To be noted: Escherichia coli.
Description: as §1, §2
(§4) After the agar solidified, 5 μL of a saturated bacterial culture, grown in CAMH broth, were dispensed on the agar surface and allowed to dry at room temperature. […] After the surface dried at room temperature the plate was incubated at 37°C overnight. […] Genomic DNA from the parent strain (E. coli HS151) and purified (restreaked) resistant isolates was obtained with a GeneJET genomic DNA purification kit according to the manufacturer’s instructions (Fisher Scientific). Assembled whole genome mutant sequences were then compared to the parent strain and polymorphisms were identified as described.

For series [7], the system named is E. coli GYR101 GyrB F513L. The experiment in a line: microbe, parasite or virus in culture. To be noted: Escherichia coli.
Description: as §1, §2, §4

In series [8] the test system is E. coli GYR107 GyrB F513L/L422V. The series is described as follows: microbe, parasite or virus in culture. To be noted: Escherichia coli.
Description: as §1, §2, §4

Series [9] has as its system E. coli GYR104 GyrB L470I. The experiment in a line: microbe, parasite or virus in culture. To be noted: Escherichia coli.
Description: as §1, §2, §4

Series [10] deals with E. coli GYR105 GyrB T469K. The series is described as follows: microbe, parasite or virus in culture. To be noted: Escherichia coli.
Description: as §1, §2, §4

Series [11] concerns E. coli GYR106 GyrB F513L/A468V. The series is described as follows: microbe, parasite or virus in culture. To be noted: Escherichia coli.
Description: as §1, §2, §4

For series [12], the system named is E. coli GYR102 GyrB E466EV. The series is described as follows: microbe, parasite or virus in culture. To be noted: Escherichia coli.
Description: as §1, §2, §4

For series [13], the system named is K. pneumoniae CL15245 (clinical isolate). The experiment in a line: Broth microdilution MIC, K. pneumoniae CL15245. To be noted: Klebsiella pneumoniae.
Description: as §1, §2

The test system of series [14] is E. coli GYR103 GyrB L446Q. The series is described as follows: microbe, parasite or virus in culture. To be noted: Escherichia coli.
Description: as §3, §2
After the agar solidified, 5 μL of a saturated bacterial culture, grown in CAMH broth, were dispensed on the agar surface and allowed to dry at room temperature. […] To select for resistance, a 100 mm petri dish was filled with 25 mL CAMH agar containing 8 μg/mL MRL-770 or 0.5 μg/mL MRL-423 (Fig 1). The cells in 1 mL of an overnight culture of E. coli HS151 (~10^9 CFU/mL) were concentrated by centrifugation and spread onto the surface of an MRL-770 or MRL-423 containing plate. After the surface dried at room temperature the plate was incubated at 37°C overnight. Any colonies that arose were counted and an approximate frequency of resistance was calculated after confirming resistance by restreaking on media containg compound as well as measuring MICs (see Results). Genomic DNA from the parent strain (E. coli HS151) and purified (restreaked) resistant isolates was obtained with a GeneJET genomic DNA purification kit according to the manufacturer’s instructions (Fisher Scientific). Assembled whole genome mutant sequences were then compared to the parent strain and polymorphisms were identified as described.

The test system of another series is HeLa Cell. The series is described as follows: HeLa cell cytotoxicity. To be noted: for Fold above MIC: HeLa EC50 relative to MIC for E. coli HS151; for EC50: Homo sapiens, HeLa, Average value (n = 2), cytotoxicity.
The subject of another series is S. aureus (MRSA) COL. The series is described as follows: Broth microdilution MIC, S. aureus COL. To be noted: Staphylococcus aureus, MRSA.
Description: as §3, §2

Setting [15] is: Table 2, HS151, GyrB mutation none.
Where [16] appears, read: read-out: E. coli HS151 MIC, S1 Table.

Take `Cn1ncc2cc(-c3nnnn3C3CCN(C(=O)Nc4ccc(Cl)c(Cl)c4)CC3)ccc21` [MRL-1082]: the MIC in [1] is over 64 µg/mL; with E. coli HS151 (ΔtolC) (Fig 4 legend, E. coli HS151), 0.0625 µg/mL; in the series on E. coli HS151 (ΔtolC) (Table 1, HS151 E. coli ΔtolC), 0.0625 µg/mL; against E. coli HS151 (ΔtolC) (setting [15]), 0.0625 µg/mL; with E. coli HS151 (ΔtolC) (setting [16]) it was 0.13 µM; in series [2] it was 0.25 µg/mL (≈ 0.53 µM). The MIC was 0.5 µg/mL (≈ 1.06 µM) in [3]; 0.125 µg/mL (≈ 0.265 µM) against E. coli CIP101 GyrA D87N; over 64 µg/mL in series [4]; over 64 µg/mL in [5]; 2 µg/mL (≈ 4.24 µM) in series [6]; over 64 µg/mL in [7]. Further, the MIC in series [8] was over 64 µg/mL; in [9], 0.25 µg/mL (≈ 0.53 µM); in series [10] it was 0.25 µg/mL (≈ 0.53 µM); in series [11] it was over 64 µg/mL; in [12], 8 µg/mL (≈ 17 µM); in series [13], over 64 µg/mL. The MIC in series [14] is 0.0625 µg/mL (≈ 0.133 µM); in the series with S. aureus (MRSA) COL, over 64 µg/mL. In the series with HeLa Cell, the “Fold above MIC” value is reported as 140 fold. Besides, in the series on HeLa Cell, the midpoint of the response, the EC50, lay at 18.2 µM.
With `COc1ccc(C)cc1NC(=O)N1CCC(n2nncc2-c2ccc3c(cnn3C)c2)CC1` [MRL-770], the MIC in [1] is over 64 µg/mL; in the series with E. coli HS151 (ΔtolC) (Table 1, HS151 E. coli ΔtolC) it was 2 µg/mL; against E. coli HS151 (ΔtolC) (setting [15]), 2 µg/mL; with E. coli HS151 (ΔtolC) (setting [16]), 4.5 µM; with E. coli HS151 (ΔtolC) (read-out: minimum inhibitory concentration (MIC), quoted in text with macromolecule labeling in E. coli JL553, strain not named at place, value equals HS151), 4.5 µM and 2 µg/mL; in [2], 4 µg/mL (≈ 8.98 µM). In addition, the MIC in series [3] was 4 µg/mL (≈ 8.98 µM); with E. coli CIP101 GyrA D87N, 2 µg/mL (≈ 4.49 µM); in series [4] it was over 64 µg/mL; in [5], over 64 µg/mL; in series [6], over 64 µg/mL; in series [7], over 64 µg/mL. The MIC in series [8] is over 64 µg/mL; in series [9], over 64 µg/mL; in series [10], 1 µg/mL (≈ 2.24 µM); in series [11], over 64 µg/mL; in [12] it was over 64 µg/mL; in series [13], over 64 µg/mL. For the same compound, the MIC (in [14]; with S. aureus (MRSA) COL) was over 64 µg/mL each time. For the same compound, the “Fold above MIC” value in the series with HeLa Cell was over 22 fold. The same compound had a half-maximal effective concentration (EC50) in the series on HeLa Cell of over 100 µM.
As for `Cn1ncc2cc(-c3cnnn3C3CCN(C(=O)Nc4cc(Cl)cc(Cl)c4)CC3)ccc21` [MRL-423], the MIC was over 64 µg/mL in series [1]; 0.25 µg/mL against E. coli HS151 (ΔtolC) (Table 1, HS151 E. coli ΔtolC); 0.25 µg/mL in the series on E. coli HS151 (ΔtolC) (setting [15]); 0.25 µg/mL against E. coli HS151 (ΔtolC) (Table 3, HS151); 0.53 µM in the series on E. coli HS151 (ΔtolC) (setting [16]); 1 µg/mL (≈ 2.13 µM) in series [2]. Moreover, the MIC in series [3] was 0.5 µg/mL (≈ 1.06 µM); against E. coli CIP101 GyrA D87N, 0.25 µg/mL (≈ 0.532 µM); in [4] it was over 64 µg/mL; in series [5] it was over 64 µg/mL; in [6], over 64 µg/mL; in series [7], 2 µg/mL (≈ 4.25 µM). In addition, the MIC is over 64 µg/mL in series [8]; 1 µg/mL (≈ 2.13 µM) in [9]; 1 µg/mL (≈ 2.13 µM) in [10]; over 64 µg/mL in series [11]; over 64 µg/mL in [12]; over 64 µg/mL in series [13]. Also, the values for the MIC (in [14]; in the series with S. aureus (MRSA) COL) were 0.5 µg/mL (≈ 1.06 µM) and over 64 µg/mL, respectively. Moreover, in the series on HeLa Cell, the midpoint of the response, the EC50, lay at 27.1 µM.

For orientation: EC50 means the concentration that produces a half-maximal response. Read a high EC50 as lower potency in that assay.

Values taken from paper PMC5507300, “Antibacterial small molecules targeting the conserved TOPRIM domain of DNA gyrase” (PLoS ONE, 2017).
